Earlier results in paper PMC12932482 (Frontiers in Pharmacology, 2026).

Settings: Obs, +CLA (with clarithromycin); ref Rengelshausen et al. (2003)

AUC0–3h: 11 ng·h/mL
SMILES: C[C@H]1O[C@@H](O[C@H]2[C@@H](O)C[C@H](O[C@H]3[C@@H](O)C[C@H](O[C@H]4CC[C@@]5(C)[C@H](CC[C@@H]6[C@@H]5C[C@@H](O)[C@]5(C)[C@@H](C7=CC(=O)OC7)CC[C@]65O)C4)O[C@@H]3C)O[C@@H]2C)C[C@H](O)[C@@H]1O [digoxin]
